Measured values: patent publication US10028999B2, “PAR-1 based therapeutic conjugates and uses thereof” (TEL HASHOMER MEDICAL RESEARCH INFRASTRUCTURE AND SERVICES …, priority 2014, dated 2018)
Peptide text beside a SMILES is read from it. * marks the point of attachment. Tos = Cc1ccc(S(=O)(=O)*)cc1; CH2Cl = ClC*

Legend:
Type in all cases: biochemical
[1] = tested on: blood coagulation (prothrombin time); experiment: Prothrombin time test; conditions: for PT: without conjugate 11.5
[2] = tested on: thrombin; experiment: Thrombin time test; conditions: for TT: without conjugate 13.4
[3] = tested on: blood coagulation (aPTT); experiment: Activated partial thromboplastin time test; conditions: for aPTT: without conjugate 30.5
[4] = 100 μM, most potent (1) to least potent (5)

With `Cc1ccc(S(=O)(=O)N[C@@H](CC(C)C)C(=O)N[C@@H](CC(=O)O)C(=O)N2CCC[C@H]2C(=O)N[C@@H](CCCNC(=N)N)C(=O)CCl)cc1` [4AA, tosyl-LDPR-CK] (Tos-LDPR-CH2Cl) the PT ([1]; 10 nM) was 11.5 s, the PT ([1]; 1 μM) was 11.4 s and the “Potency score in PT test” value [1, 4] was 5. For the same molecule, the PT ([1]; 100 μM) was 12.7 s, the TT ([2]; 10 nM) was 13.5 s and the “Potency score in TT test” value ([2]; 1 μM, most potent (1) to least potent (5)) was 5. The TT ([2]; 1 μM) was 14.6 s, the TT ([2]; 100 μM) was greater than 80 s and the aPTT ([3]; 10 nM) was 30.8 s. For the same molecule, the aPTT ([3]; 1 μM) was 30.9 s, the “Potency score in aPTT test” value [3, 4] was 5 and the aPTT ([3]; 100 μM) was 42.6 s.
